Test results taken from EP4663640A1 (Shanghai Institute of Materia Medica, Chinese Academy of …, priority 2023, dated 2024).
Several values for one entry are separate records, joined by “and”; a condition that tells them apart may be missing. Equal entries are not always repeated.

Assays:
[1] = Liver microsome stability test, mouse; type: in vitro ADME; conditions: Mouse liver microsomes
Description: Calculation of Intrinsic Clearance: Clint = (1000 × slope)/(P); [formula]

[2] = Preliminary pharmacokinetic evaluation, plasma drug concentration after oral administration to mice; type: in vivo, ICR mice; conditions: male, ICR, mouse, oral 10 mg/kg, Mean ± SD, N = 3
Experimental: The test compound was prepared according to the following solvent: an aqueous solution of DMSO/Tween 80/0.5% (m/v) CMC-Na at a ratio of 2:2:96 (v/v/v), with a drug concentration of 1 mg/mL. Then, the test compound was gavaged to mice at a dosage of 10 mL/kg, with a dose of 10 mg/kg. Each compound was administered to 3 mice. At 1h and 4h after administration, about 50 µL of blood was collected from the orbital venous plexus of the mouse and placed in a centrifuge tube containing EDTA-K2 anticoagulant.

[3] = Pharmacokinetics in rats (oral and intravenous); type: in vivo, SD rats
Experimental: (§1) Intravenous (IV) administration: the drug to be tested was dissolved in DMSO/Solutol/normal saline at a ratio of 5:5:90 (v/v/v), with a concentration of 0.2 mg/mL, and the administration volume was 5 mL/kg. Oral (PO) administration: the drug to be tested was dissolved in DMSO/Tween 80/0.5% CMC-Na solution at a ratio of 2:2:96 (v/v/v), with a concentration of 1 mg/mL, and the administration volume was 10 mL/kg.
Male SD rats weighing 180-280g, 3 rats in each group, fasted for 12h before the experiment, had free access to water, and ate uniformly 4 h after administration. In the IV group, the rat tail vein was administered with a dose of 1mg/kg, and blood was collected at 0.083, 0.25, 0.5, 1.0, 2.0, 4.0, 6.0, 8.0, 12 and 24 h after administration. PO group, administered by gavage at a dose of 10 mg/kg, blood was collected at 0.25, 0.5, 1.0, 2.0, 4.0, 6.0, 8.0, 12 and 24 h after administration. At the above time points, 0.2 mL of blood was collected from the jugular vein and placed in an anticoagulant tube containing EDTA-K2. After the whole blood was collected, it was temporarily stored in an ice water bath, centrifuged at 11000 rpm for 5 min within 30min, the plasma was separated, and then frozen in a -70 °C refrigerator for testing. Tissue distribution group, oral administration, dose of 10mg/kg, 2h after drug administration, rats were anesthetized, bled through the abdominal aorta, and immediately dissected to collect brain, heart, liver, spleen, lung, kidney, colon, muscle. Part of the whole blood was collected and operated in an ice bath. The whole blood was centrifuged at 11000 rpm for 5 min within 30 min, and plasma (about 200 µL) was separated. After the tissue and plasma were collected, they were stored below -60 °C for testing. After each tissue was accurately weighed, the homogenizing reagent acetonitrile-water (1:1, v/v) was added for homogenization, wherein the raion of tissue to homogenizing reagent was 1:4 (g:mL). After homogenization, the samples were sonicated for 10 min, and the supernatant was taken after centrifugation for detection. The drug concentration in the samples was quantified using LC-MS/MS method. Relevant pharmacokinetic parameters Tmax, Cmax, AUC0-∞, t1/2, etc. were calculated using WinNonlin software.

[4] = Tissue distribution in rats; type: in vivo, SD rats; conditions: 2 hours after oral administration of 10 mg/kg, brain, heart, liver, spleen, lung, kidney, colon, muscle versus plasma (Figure 2)
Experimental: as §1
Male SD rats weighing 180-280g, 3 rats in each group, fasted for 12h before the experiment, had free access to water, and ate uniformly 4 h after administration. In the IV group, the rat tail vein was administered with a dose of 1mg/kg, and blood was collected at 0.083, 0.25, 0.5, 1.0, 2.0, 4.0, 6.0, 8.0, 12 and 24 h after administration. PO group, administered by gavage at a dose of 10 mg/kg, blood was collected at 0.25, 0.5, 1.0, 2.0, 4.0, 6.0, 8.0, 12 and 24 h after administration. At the above time points, 0.2 mL of blood was collected from the jugular vein and placed in an anticoagulant tube containing EDTA-K2. […] The drug concentration in the samples was quantified using LC-MS/MS method. Relevant pharmacokinetic parameters Tmax, Cmax, AUC0-∞, t1/2, etc. were calculated using WinNonlin software.

mice = experiment: Marble burial test (antianxiety); type: in vivo; conditions: for number of buried marbles: test with reduced dosage (Figure 5)
Experimental: The drug to be tested was dissolved in DMSO: Tween 80: distilled water at a ratio of 2:2:96 (v/v/v), and then administered to mice by gavage at a volume of 10 mL/kg. […] The blank control group was only given 10 mL/kg of the above solvent.
The mouse marble burial test is a behavioral assay used for the screening of antianxiety drugs. It exploits the natural digging behavior of mice in environments such as burrows or escape tunnels and is sensitive to small changes in behavior caused by genetic manipulation, disease, or drug treatment.
A 5cm thick sawdust litter was laid in a 33 cm×24 cm×28 cm carton, and 4×5 black marbles (4 cm apart) with a total of 20 black marbles of 14mm in diameter were neatly placed on the litter. The mouse was put into the carton facing the corner for 30 minutes. After 30 minutes, the mouse was carefully taken out and the number of marbles buried by the mouse was counted. If more than 2/3 of the marble was buried, it was considered a whole marble. First, a blank experiment was conducted. Before the experiment, the mouse was taken to the experimental environment to adapt. After 1 hour, the experiment began. After the experiment, the mouse was returned to the cage and the number of marbles buried by the mouse was counted. On the second day, the mouse was taken to the experimental environment to adapt for 1 hour before the drug was administered. After the drug administration, the marble burying experiment was conducted for […]. After the experiment, the mouse was carefully taken out and returned to the cage to prevent the mouse from escaping violently and affecting the experimental results. After counting, the black marbles were taken out and wiped with alcohol, and the litter was turned over again to remove the smell of the previous mouse to prevent it from affecting the experiment of the next mouse. The marbles were neatly placed for the experiment of the next mouse.

[5] = Liver microsome stability test, human
[6] = male, SD, rat, plasma, 1 mg/kg (IV)
[7] = male, SD, rat, plasma, 10 mg/kg (PO)

## Cn1c(=O)n(CCCO)c(=O)c2c1nc(C1(F)CCC(F)(F)CC1)n2Cc1ccc(F)c(Cl)c1 [Example E68, 7-(3-chloro-4-fluorobenzyl)-1-(3-hydroxypropyl)-3-methyl-8-(1,4,4-trifluorocyclohexyl)-3,7-dihydro-1H-purine-2,6-dione]
[1]
  Stability Evaluation: Medium (30%<MF%<70%, medium metabolic stability)
[1]; metabolic bioavailability
  MF %: 49.3%
[1]; pH 7.4, 1µM compound, read-out: Half-life T1/2
  half-life at 1 µM: 46 min
[2]; 1h
  concentration at 1 h: 2700 ± 54 ng/mL
[2]; 4h
  concentration at 4 h: 1890 ± 213 ng/mL
[3]; 10 mg/kg (PO), 10 mg/kg
  t1/2: 4.88 ± 0.80 h
[3]; 10 mg/kg (PO), oral bioavailability, 10 mg/kg
  F: 62.2% and 62.2 ± 15.9%
[3]; [6]
  AUC(0-inf): 1170 ± 406 ng·h/mL
  Cmax: 772 ± 92 ng/mL
  clearance: 15.4 ± 4.98 mL/min/kg
  half-life: 226 ± 128 min
[3]; male, SD, rat, plasma, 1 mg/kg (IV), read-out: VSS
  Vd: 2.94 ± 0.79 L/kg
[3]; [7]
  AUC(0-inf): 7220 ± 1850 ng·h/mL
  Tmax: 30 min
  half-life: 293 min
[3]; male, rat, plasma, 10 mg/kg (PO), Mean±SD, N=3
  Cmax: 1600 ng/mL
[4]
  concentration in each tissue: significantly higher than that in plasma
mice; oral 0.03 mg/kg
  number of buried marbles: can reduce
mice; oral 0.1 mg/kg, better than the same dose of HC-070
  number of buried marbles: more obvious
mice; oral 0.1-1 mg/kg, before versus after administration (Figure 3)
  number of marbles buried by mice: significantly reduced
[5]; Human liver microsomes
  Stability Evaluation: Medium (30%<MF%<70%, medium metabolic stability)
[5]; Human liver microsomes, metabolic bioavailability
  MF %: 55.2%
[5]; human, liver microsomes, pH 7.4
  half-life at 1 µM: 132 min
